# Source: US8163870B2, “Channel forming peptides” (Kansas State University Research Foundation, priority 2000, dated 2012)
# Where “and” joins values, the source holds several entries; their conditions need not be identical. Equal values may be shown once. Read-outs that look alike come from different tables or passages of the source. Non-standard residues stand in square brackets, D forms with d. No end group written: not given here.
# Tests used:
# MDCK monolayers = test: Transepithelial electrical resistance (RTE) / conductance (gTE) across MDCK monolayers; assay type: cell-based, canine; conditions: for effect on transepithelial electrical resistance: upon onset of channel activity
# Experimental: (§1) Transepithelial ion transport was evaluated in a modified Ussing chamber (Model DCV9, Navicyte, San Diego, Calif.). The Ussing chamber's fluid resistance compensation was completed in Ringer solution (composition (in mM) was 120 NaCl, 25 NaHCO3 3.3 KH2HPO4, 0.8 K2HPO4, 1.2 MgCl2, 1.2 CaCl2). For electrical measurements cell monolayers were bathed in Ringer solution maintained at 37° C. and continuously bubbled with 5% CO2:95% O2. The transepithelial membrane potential (Vte) was clamped to zero and the transepithelial short circuit current (Isc), an indicator of net ion transport, was measured continuously with a voltage clamp apparatus (Model 558C, University of Iowa, Department of Bioengineering, Iowa City, Iowa). Data were digitally acquired at 1 Hz with a Macintosh computer (Apple Computer, Cuppertino, Calif.) using Aqknowledge software (ver. 3.2.6, BIOPAC Systems, Santa Barbara, Calif.) with an MP100A-CE interface.
# MDCK cell monolayers (in the presence of 1-EBIO to maximize basolateral membrane K^+ conductance) were exposed on the apical aspect to various concentrations of selected peptides as indicated.
# In this experiment, the MDCK monolayers were initially incubated with 60 μM of SEQ ID No. 27. When the residual resistance reached approximately 10% of the starting value, the peptide was removed by aspiration and followed by the addition of pre-warmed Ringer solution. This solution was subsequently removed and replaced an additional five times over the next 2 minutes. In this figure, the solid central line represents the measured current at zero mV and the vertical deflections represent the current recorded during periodic 1 mV bipolar pulses. Pulse amplitude is inversely proportional to RTE in accordance with Ohm's law.
# Additional experiments have been conducted to test for complete reversibility of peptide-induced changes in RTE. Monolayers were exposed to peptide (60 μM) in an Ussing chamber for ˜20 minutes to document decreases in RTE, recovered and returned to the cell culture incubator for two to five days with the apical and basolateral media refreshed daily before subsequent assessment of basal RTE and responsiveness to peptide. In the previous example, the return of RTE was only followed for hours. In this example, the restoration of RTE was measured over days to determine the minimum time require for full recovery.
# Electrical measurements. Transepithelial ion transport was evaluated in modified Ussing chambers (Model DCV9; Navicyte, San Diego, Calif.). For typical electrical measurements of ion flux, cells were bathed in symmetrical Ringer solution (composition in mM: 120 NaCl, 25 NaHCO3, 3.3 KH2HPO4, 0.8 K2HPO4, 1.2 MgCl2, 1.2 CaCl 2; 290±2 mOsmol). The diffusion chambers were maintained at 37° C. and continuously bubbled with 5% CO2/95% O2 to maintain pH, provide aeration and mix the fluid in the chambers. The transepithelial potential (VTE) was clamped to zero, and ISC measured continuously with a voltage-clamp apparatus (Model 558C, University of Iowa, Department of Bioengineering, Iowa City, Iowa). Data were acquired at 1 Hz with a Macintosh computer (Apple Computer, Cuppertino, Calif.) using Aqknowledge software (ver. 3.2.6; BIOPAC Systems, Santa Barbara, Calif.) with an MP100A-CE interface. gTE was determined by exposing the epithelia to a 5 second 1 mV bipolar pulse at 100 second intervals. The recorded current deflections were used with Ohms law to calculate gTE: […]
# [1] = cited from earlier work
# MDCK cells = assay type: cell-based, canine
# Excerpt: Cell culture: MDCK cells were a generous gift of Dr. Lawrence Sullivan (Kansas University Medical Center, Kansas City, Kans.). T84 cells were obtained from Dr. Daniel Devor (University of Pittsburgh, Pittsburgh, Pa.). MDCK and T84 cells were maintained with similar culture procedures. The culture medium was a 1:1 mixture of DMEM and Ham's F-12 (Gibco BRL, Grand Island, N.Y.) supplemented with 5% heat inactivated fetal bovine serum (BioWhittaker, Walkersville, Md.), and 1% penicillin and streptomycin (Gibco BRL). Cells were grown in plastic culture flasks in a humidified environment with 5% CO2 at 37° C. and passaged every 5-7 days. For Ussing chamber experiments, cells were plated on 1.13 cm^2 permeable supports (Snapwell™, Costar®, Cambridge, Mass.) at a density of approximately 1×10^6 cells/well and incubated in DMEM/F-12 supplemented with FBS and antibiotics (changed every other day) for 2-3 weeks prior to being mounted in modified Ussing flux chambers.
# To form monolayers, the cells were plated onto the upper surface of a permeable membrane that forms the bottom of a plastic well. Two types were used. One was the Transwell™ insert (Costar®, Cambridge, Mass.) supported in a six-well tissue culture plate and the other type was the Snapwell™ (Costar®, Cambridge, Mass.). During incubation, the medium was replaced at 48-72 hour intervals. Confluent monolayers formed within 72 hours. Experiments were performed on the monolayers 6-9 days after the initial plating. Net fluid secretion responses were optimal after six days.
# Solutions: Ringer solution was made fresh daily. The final concentration (in mM) was 120 NaCl, 25 NaHCO3 3.3 KH2HPO4, 0.8 K2HPO4, 1.2 MgCl2, 1.2 CaCl2, (290±2 mOsmol). All components of the Ringer solution were from Sigma (St. Louis, Mo.).
# as §1, with “Epithelial electrical measurements: Transepithelial” for “Transepithelial”, “(see below).” for “(composition (in mM) was 120 NaCl, 25 NaHCO3 3.3 KH2HPO4, 0.8 K2HPO4, 1.2 MgCl2, 1.2 CaCl2).”
# as §1
# MDCK cell monolayers (in the presence of 1-EBIO to maximize basolateral membrane K^+ conductance) were exposed on the apical aspect to escelating peptide concentrations. Maximal change in Isc (relative to the Isc prior to peptide exposure) was recorded following each increment in apical peptide concentration. […]
# [2] = molecular target: T1, tetrameric channel (four-helix bundle M2GlyR) (Homo sapiens, UniProt P23415); conditions: cited from earlier work
# T1 construct: four identical M2GlyR peptide units were tethered to a 9-amino acid carrier template to form a four-helix bundle protein; 9-amino acid carrier template (tethers four peptide units); host or cells: synthetic peptide construct reconstituted in lipid bilayers
# [3] = Circular dichroism in 20% TFE; assay type: physicochemical; conditions: water containing 20% TFE
# Experimental: Circular dichroism: Circular dichroism spectra were recorded on a Jasco Model J-720 spectropolarimeter in the range 180-250 nm using quartz cuvettes with a 0.2 mm pathlength. Eight scans recorded at a rate of 20 nm/minute were averaged and corrected for contributions of buffer (10 mM HEPES, pH 7.2). […] The molar ellipticity was calculated using d-10-camphorsulfonic acid (290.5=7783° cm2 dmol 1) as a reference (Chen, G. C., and J. T. Yang. 1977. Two point calibration of spectropolarimeter with d-10-camphorsulfonic acid. Anal. Lett. 10:1195-1207.). The line shapes of the spectra were analyzed using a least-square fitting routine by comparison to polylysine standards representing 100%-helix, -turn, or random coil, respectively.
# [4] = Chemical cross-linking (BS3) and SDS-PAGE, oligomeric state of peptide in solution; assay type: physicochemical; conditions: SDS-PAGE
# Experimental: Chemical cross-linking: In order to visualize the oligomeric state of the peptide in solution a chemical cross-linking protocol was developed. Calculated amounts of each peptide were weighted out and dissolved in 1 mL of distilled water to make 1 mM stock solutions. A 100 mM stock solution of the chemical crosslinking reagent Bis[Sulfosuccinimidyl]suberate, BS^3, (Pierce Chemical Co., Rockford, Ill.) was prepared in dimethyl sulfoxide (DMSO). […] Sample were allowed to sit at room temperature for 15 minutes. 1-6 μL of 100 mM BS^3 was then added to the previously prepared peptide such that the crosslinking reagent was present in 20-fold excess. The final volume for each reaction was 100 μL. […] Each sample was then vacuum dried. Later dry samples were re-dissolved in 60 μL of distilled water along with 60 μL of a 2×-tricine SDS sample buffer (Novex, San Diego). All samples were then boiled at 100° C. for 5 minutes. 5 μL aliquots of each SDS boiled sample was then loaded into separate lanes of pre-cast, 1.0 mm, 10 well, 10-20% tricine gels (Novex, San Diego). Pre-made Novex tricine-SDS buffer was used in the electrophoresis. The reference well contained 1 μL of MultiMark® multi-colored molecular weight standard (Novex, San Diego). The electrophoresis was carried out at a constant 110 Volts for 90 minutes. […]
compound,measurement,setting,value
all-D amino acid form of SEQ ID NO. 27: all-D amino acid form of SEQ ID NO. 27 ([dK][dK][dK][dK][dA][dA][dR][dV]G[dL]G[dI][dT][dT][dV][dL][dV][dT][dT][dI]G[dL]G[dV][dR][dA][dA]),concentration triggering conductance increases,MDCK monolayers,40 µM
PARVGLGITTVLTMTTQSSGSRA (PARVGLGITTVLTMTTQSSGSRA; listed as Homo sapiens) [SEQ ID No. 1],transference number for anions,[1]; 5-fold KCl concentration gradient,0.85
same,single-channel conductance,"[1]; symmetric 0.5 M KCl, listed as M2GlyR",25 pS and 49 pS
same,Activity profile in MDCK cells,MDCK cells; peptide at 500 μM,1.5 at 500 μM μA/cm2
"O=C(O)c1c2ccccc2cc2ccccc12 [9-AC, 9-anthracene carboxylic acid]",block of the tetrameric channel,[2],blocked
KKKKPARVGLGITTVLTMTTRW (Modified Homo sapiens) [SEQ ID No. 55],decrease in RTE,MDCK monolayers; 100 μM,~70%
same,decrease in RTE,MDCK monolayers; 200 μM,~90%
same,effect on transepithelial electrical resistance,MDCK monolayers,dramatic decrease in transepithelial electrical resistance
"KKKKPARVGLGITTVLVTTIGLGVRAP [SEQ ID No. 18, KKKKPARVGL GITTVLVTTI GLGVRAP]",EC50,"MDCK cells; MDCK monolayers, modified Hill equation fit, read-out: half maximal effect on Isc (EC50 / K1/2)",50 µM
same,effect on isolated cells,isolated cells,not harmful to isolated cells
"O=C(O)c1cccnc1Nc1cccc(C(F)(F)F)c1 [NFA, niflumic acid]",block of the tetrameric channel,[2],blocked
"PARVGLGITTVLVTTIGLGVRAPKKKK [SEQ ID No. 19, PARVGLGITT VLVTTIGLGV RAPKKKK]",effect on isolated cells,isolated cells,cytotoxic effects
KKKKPARVGLGITTVLTMTTQW (Modified Homo sapiens) [SEQ ID No. 54],effect on transepithelial electrical resistance,MDCK monolayers,dramatic decrease in transepithelial electrical resistance
Cc1cccc(C)c1NC(=O)C[N+](C)(C)C [QX-222],block of the tetrameric channel,[2],not blocked
KKKKVTTIGLGVRAPLVTTIGLGVRAA (KKKKVTTIGLGVRAPLVTTIGLGVRAA; Modified Homo sapiens) [SEQ ID No. 5],Activity profile in MDCK cells,MDCK cells; peptide at 500 μM,<1.0 at 500 μM μA/cm2
same,secondary structure by CD,[3],beta-sheet
KKKKAARVGLGITTVWVTTIGLGVRAA (KKKKAARVGLGITTVWVTTIGLGVRAA; Modified Homo sapiens) [SEQ ID No. 9],Activity profile in MDCK cells,MDCK cells; peptide at 100 μM,20.0 μA/cm2
same,Activity profile in MDCK cells,"MDCK cells; peptide at 100 μM, listed as 9",20.0 at 100 μM μA/cm2
same,effect on transepithelial electrical resistance,MDCK monolayers,dramatic decrease in transepithelial electrical resistance
same,aggregation state in solution,[4],remained in monomer form
KKKKPARVGLGITTVLVTTIGLGVRAA (KKKKPARVGLGITTVLVTTIGLGVRAA; Modified Homo sapiens) [SEQ ID No. 26],peptide concentration producing maximal effect on Isc (Imax),MDCK cells; MDCK monolayers,100 µM
same,Activity profile in MDCK cells,MDCK cells; peptide at 100 μM,25.7 at 100 μM μA/cm2
same,effect on transepithelial electrical resistance,MDCK monolayers,dramatic decrease in transepithelial electrical resistance
same,secondary structure by CD,[3],helical structure
